In ChEMBL document CHEMBL5291721, “A preclinical secondary pharmacology resource illuminates target-adverse drug reaction associations of marketed drugs” (Nat Commun, 2023) one finds AC50 data, which are given here for 27 compounds.

Molecules are shown by their SMILES.

Experiment [1] addresses T1, Muscarinic acetylcholine receptor M1 (Homo sapiens, UniProt P11229).
T1 sequence (P11229 whole entry): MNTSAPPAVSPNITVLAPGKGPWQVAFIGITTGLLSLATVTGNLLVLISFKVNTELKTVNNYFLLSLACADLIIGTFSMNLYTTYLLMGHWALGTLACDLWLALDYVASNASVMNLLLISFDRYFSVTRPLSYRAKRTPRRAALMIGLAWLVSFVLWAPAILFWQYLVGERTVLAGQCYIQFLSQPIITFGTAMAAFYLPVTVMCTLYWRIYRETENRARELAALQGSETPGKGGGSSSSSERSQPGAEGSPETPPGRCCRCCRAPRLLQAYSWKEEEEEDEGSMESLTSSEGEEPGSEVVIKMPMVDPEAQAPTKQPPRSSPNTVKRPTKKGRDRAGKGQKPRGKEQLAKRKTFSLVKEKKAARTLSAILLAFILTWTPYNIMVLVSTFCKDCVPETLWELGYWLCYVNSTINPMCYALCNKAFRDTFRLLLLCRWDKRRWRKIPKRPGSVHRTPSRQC
It is filed as functional, cell-based.

For another experiment, the target named is D(1A) dopamine receptor (Homo sapiens, UniProt P21728). It is filed as functional, cell-based.
Chain of D(1A) dopamine receptor (P21728 whole entry): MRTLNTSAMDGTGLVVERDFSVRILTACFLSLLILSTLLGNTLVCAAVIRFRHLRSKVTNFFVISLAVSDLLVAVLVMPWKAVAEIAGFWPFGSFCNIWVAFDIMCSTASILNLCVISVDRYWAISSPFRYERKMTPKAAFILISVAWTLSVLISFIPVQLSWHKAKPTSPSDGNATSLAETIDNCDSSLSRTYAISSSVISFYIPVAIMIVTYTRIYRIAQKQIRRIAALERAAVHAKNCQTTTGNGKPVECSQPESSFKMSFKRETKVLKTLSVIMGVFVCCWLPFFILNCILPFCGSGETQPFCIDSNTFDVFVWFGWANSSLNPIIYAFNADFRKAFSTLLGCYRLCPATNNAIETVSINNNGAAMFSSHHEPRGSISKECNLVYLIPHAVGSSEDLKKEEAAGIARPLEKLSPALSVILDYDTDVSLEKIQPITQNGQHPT
The target of experiment [2] is T2, 5-hydroxytryptamine receptor 1A (Homo sapiens, UniProt P08908).
T2 sequence (P08908 whole entry): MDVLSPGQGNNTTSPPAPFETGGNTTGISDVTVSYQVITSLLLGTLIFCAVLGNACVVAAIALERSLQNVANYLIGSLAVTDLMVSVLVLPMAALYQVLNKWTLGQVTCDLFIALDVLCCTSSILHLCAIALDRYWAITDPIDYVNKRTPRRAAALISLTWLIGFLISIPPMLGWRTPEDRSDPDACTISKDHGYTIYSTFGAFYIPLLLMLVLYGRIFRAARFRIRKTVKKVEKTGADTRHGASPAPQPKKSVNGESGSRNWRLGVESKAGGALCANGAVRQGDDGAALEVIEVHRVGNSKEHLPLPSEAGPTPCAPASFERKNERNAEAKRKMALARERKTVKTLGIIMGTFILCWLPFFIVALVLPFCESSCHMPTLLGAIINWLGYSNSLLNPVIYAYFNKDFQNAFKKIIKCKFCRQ
The class given is functional, cell-based.

A further experiment has as its target T3, Adenosine receptor A3 (Homo sapiens, UniProt P0DMS8).
T3 sequence (P0DMS8 whole entry): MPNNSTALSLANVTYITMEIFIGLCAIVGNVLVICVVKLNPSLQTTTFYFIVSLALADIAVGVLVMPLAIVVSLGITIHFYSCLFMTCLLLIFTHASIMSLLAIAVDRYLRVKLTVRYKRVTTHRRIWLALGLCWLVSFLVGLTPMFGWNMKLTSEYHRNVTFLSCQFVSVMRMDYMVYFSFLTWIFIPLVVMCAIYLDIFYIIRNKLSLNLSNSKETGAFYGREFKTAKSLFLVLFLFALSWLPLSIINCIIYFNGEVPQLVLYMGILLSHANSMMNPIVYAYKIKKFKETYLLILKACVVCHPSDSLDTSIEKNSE

The target of experiment [3] is T4, Alpha-2A adrenergic receptor (Homo sapiens, UniProt P08913).
T4 sequence (P08913 whole entry): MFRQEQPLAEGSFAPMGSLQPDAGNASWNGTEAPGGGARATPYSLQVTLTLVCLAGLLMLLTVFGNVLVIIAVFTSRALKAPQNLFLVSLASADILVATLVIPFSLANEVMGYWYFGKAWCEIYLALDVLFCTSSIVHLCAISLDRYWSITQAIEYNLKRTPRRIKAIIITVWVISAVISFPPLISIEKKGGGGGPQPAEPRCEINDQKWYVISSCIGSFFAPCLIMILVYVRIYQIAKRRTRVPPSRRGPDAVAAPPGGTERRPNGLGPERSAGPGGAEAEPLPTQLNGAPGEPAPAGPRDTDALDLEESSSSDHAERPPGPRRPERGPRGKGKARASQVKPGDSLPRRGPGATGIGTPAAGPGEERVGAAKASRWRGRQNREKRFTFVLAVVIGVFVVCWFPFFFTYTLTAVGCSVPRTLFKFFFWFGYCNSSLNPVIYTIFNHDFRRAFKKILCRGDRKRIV
It is filed as functional, cell-based.

Experiment [4] has as its target T5, Alpha-1A adrenergic receptor (Homo sapiens, UniProt P35348).
T5 sequence (P35348 whole entry): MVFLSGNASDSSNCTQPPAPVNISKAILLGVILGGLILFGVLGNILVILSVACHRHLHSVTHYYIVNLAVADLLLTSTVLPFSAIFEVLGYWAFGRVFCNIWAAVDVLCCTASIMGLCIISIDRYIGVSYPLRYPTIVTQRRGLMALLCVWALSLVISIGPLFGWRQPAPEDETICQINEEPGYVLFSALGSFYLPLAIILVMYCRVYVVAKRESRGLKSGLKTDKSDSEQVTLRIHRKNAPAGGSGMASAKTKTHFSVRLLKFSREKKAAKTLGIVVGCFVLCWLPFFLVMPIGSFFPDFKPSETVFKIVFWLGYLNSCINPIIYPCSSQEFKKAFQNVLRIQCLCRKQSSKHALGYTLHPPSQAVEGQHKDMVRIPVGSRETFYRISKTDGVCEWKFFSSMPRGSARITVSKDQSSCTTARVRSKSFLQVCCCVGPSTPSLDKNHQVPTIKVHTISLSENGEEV
The class given is functional, cell-based.

In a further experiment the target is Histamine H1 receptor (Homo sapiens, UniProt P35367).
Chain of Histamine H1 receptor (P35367 whole entry): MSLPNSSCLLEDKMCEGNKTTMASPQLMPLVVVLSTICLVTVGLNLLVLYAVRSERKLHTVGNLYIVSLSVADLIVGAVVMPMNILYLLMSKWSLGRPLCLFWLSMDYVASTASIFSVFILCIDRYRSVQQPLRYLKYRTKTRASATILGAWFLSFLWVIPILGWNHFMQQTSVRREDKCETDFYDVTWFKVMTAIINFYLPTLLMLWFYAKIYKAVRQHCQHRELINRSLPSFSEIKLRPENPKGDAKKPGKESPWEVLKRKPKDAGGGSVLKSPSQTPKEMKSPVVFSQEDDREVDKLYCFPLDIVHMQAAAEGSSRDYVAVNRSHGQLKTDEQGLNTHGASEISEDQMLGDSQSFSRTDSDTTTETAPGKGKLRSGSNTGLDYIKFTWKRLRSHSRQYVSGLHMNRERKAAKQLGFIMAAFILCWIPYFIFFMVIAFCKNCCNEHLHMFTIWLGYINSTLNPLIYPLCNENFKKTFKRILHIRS
Experiment [5] addresses T5, Alpha-1A adrenergic receptor. The class given is functional, cell-based. This is another data set of the same source.
Experiment [6] addresses 5-hydroxytryptamine receptor 2B (Homo sapiens, UniProt P41595). The class given is functional, cell-based.
Experiment [7] deals with T1, Muscarinic acetylcholine receptor M1. The class given is functional.
Also: assay procedure not described here.

Chain of 5-hydroxytryptamine receptor 2B (P41595 whole entry): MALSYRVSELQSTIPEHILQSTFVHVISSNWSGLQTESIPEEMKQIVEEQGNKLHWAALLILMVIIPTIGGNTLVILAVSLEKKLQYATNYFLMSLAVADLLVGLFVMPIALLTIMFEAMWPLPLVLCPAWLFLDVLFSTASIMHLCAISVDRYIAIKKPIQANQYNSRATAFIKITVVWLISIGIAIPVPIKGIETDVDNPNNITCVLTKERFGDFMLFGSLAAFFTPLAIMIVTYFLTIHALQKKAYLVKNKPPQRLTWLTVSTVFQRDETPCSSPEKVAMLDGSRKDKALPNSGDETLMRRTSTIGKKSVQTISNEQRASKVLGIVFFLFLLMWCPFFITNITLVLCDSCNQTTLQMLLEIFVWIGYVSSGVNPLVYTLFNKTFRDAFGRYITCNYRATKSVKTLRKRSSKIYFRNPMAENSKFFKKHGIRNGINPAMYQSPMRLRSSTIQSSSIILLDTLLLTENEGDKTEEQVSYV

Turning to `Nc1ccc(C(=O)O)cc1` [AMINOBENZOIC ACID], the AC50 (in general, the midpoint of the concentration-response curve, whichever way the signal moves) in experiment [1] was greater than 30 µM.
The same measure, in the same setting: the result for `CCCC1C(=O)N2C(N(C)C)=Nc3ccc(C)cc3N2C1=O` (centres undefined) [APAZONE] reads greater than 30 µM.
The same measure, in the same setting: then `CCS(=O)(=O)N1CC(CC#N)(n2cc(-c3ncnc4[nH]ccc34)cn2)C1` [BARICITINIB], with greater than 10 µM.
As for `O=C1CN=C(c2ccccc2)c2c(sc3c2CCCC3)N1` [BENTAZEPAM], the AC50 in experiment [1] was greater than 30 µM.
For `O=C(O)CCCN1CCC(O[C@@H](c2ccc(Cl)cc2)c2ccccn2)CC1` [BEPOTASTINE], in experiment [1], the AC50 is greater than 30 µM.
For the compound `C[N+](C)(C)CC(=O)O` [BETAINE], the AC50 (at D(1A) dopamine receptor; in [2]; at Adenosine receptor A3; in [3]; in experiment [4]; on Histamine H1 receptor) was greater than 30 µM in each case. Moreover, the AC50 in [5], in experiment [6] and in experiment [7] was greater than 30 µM in each case.
Turning to `CCCCN(CCCC)CCCOC(=O)c1ccc(N)cc1` [BUTACAINE], the AC50 in experiment [1] is greater than 30 µM.
Take `N[C@@H](CSCC(=O)O)C(=O)O` [CARBOCYSTEINE]: the AC50 (on D(1A) dopamine receptor; in experiment [2]; at Adenosine receptor A3; in experiment [3]; in experiment [4]; on Histamine H1 receptor) was greater than 30 µM throughout. Also, the concentration at half-maximal activity (AC50) in [5], in [6] and in experiment [7] was greater than 30 µM throughout.
In the case of `NCc1ccccc1CC(=O)N[C@@H]1C(=O)N2C(C(=O)O)=C(CSc3nnnn3CC(=O)O)CS[C@H]12` [CEFORANIDE], the AC50 in experiment [1] was greater than 10 µM.
With `CC(C)(N)Cc1ccc(Cl)cc1` [CHLORPHENTERMINE], the AC50 at D(1A) dopamine receptor was greater than 10 µM; in experiment [2] it was greater than 10 µM; at Adenosine receptor A3, greater than 30 µM; in experiment [3], greater than 10 µM; in [4], greater than 30 µM; on Histamine H1 receptor it was 14 µM. Further, the AC50 was greater than 30 µM in experiment [5], 25 µM in experiment [6] and greater than 10 µM in experiment [7].
The compound `NS(=O)(=O)c1cc2c(cc1Cl)NC(C1CC3C=CC1C3)NS2(=O)=O` (centres undefined) [CYCLOTHIAZIDE] displayed an AC50 in experiment [1] of 17.6 µM.
Still for that read-out and setting: the result for `Nc1nc(-n2cc(C(=O)O)c(=O)c3cc(F)c(N4CC(O)C4)c(Cl)c32)c(F)cc1F` [DELAFLOXACIN] reads greater than 30 µM.
`NS(=O)(=O)c1cc(Cl)c(Cl)c(S(N)(=O)=O)c1` [DICHLORPHENAMIDE]: the AC50 was greater than 10 µM on D(1A) dopamine receptor; greater than 10 µM in experiment [2]; greater than 10 µM on Adenosine receptor A3; greater than 10 µM in experiment [3]; greater than 30 µM in experiment [4]; greater than 10 µM at Histamine H1 receptor. Moreover, the AC50 in experiment [5] is greater than 30 µM; in experiment [6], greater than 10 µM; in experiment [7], greater than 10 µM.
Turning to `COc1ccc(-c2cc(=O)c3c(O)cc(O[C@@H]4O[C@H](CO[C@@H]5O[C@@H](C)[C@H](O)[C@@H](O)[C@H]5O)[C@@H](O)[C@H](O)[C@H]4O)cc3o2)cc1O` [DIOSMIN], the AC50 in experiment [1] was greater than 30 µM.
For the compound `CCOc1ccc(/C=C2\NCCc3cc(OCC)c(OCC)cc32)cc1OCC` [DROTAVERINE], the AC50 in experiment [1] amounted to 12.3 µM.
Same read-out and setting: then `CCOC(=O)C(c1c(O)c2ccccc2oc1=O)c1c(O)c2ccccc2oc1=O` [ETHYL BISCOUMACETATE], with greater than 30 µM.
As for `C=C1C[C@@H]2[C@H](CC[C@]3(C)C(=O)CC[C@@H]23)[C@@]2(C)C=CC(=O)C=C12` [EXEMESTANE], the AC50 at D(1A) dopamine receptor was greater than 10 µM; in experiment [2] it was greater than 10 µM; on Adenosine receptor A3 it was greater than 30 µM; in experiment [3], greater than 10 µM; in experiment [4], greater than 30 µM; at Histamine H1 receptor, greater than 10 µM. The AC50 is greater than 30 µM in experiment [5], 36 µM in experiment [6] and greater than 10 µM in [7].
Compound `Cc1nc(-c2ccc(OCC(C)C)c(C#N)c2)sc1C(=O)O` [FEBUXOSTAT] registered an AC50 in experiment [1] of 16.1 µM.
The same measure, in the same setting: the result for `O=C1NCC2(CCN(CCc3ccccc3)CC2)O1` [FENSPIRIDE] reads greater than 30 µM; that for `C[C@@H]1C[C@H]2[C@@H]3C[C@H](F)C4=CC(=O)C=C[C@]4(C)[C@@]3(F)[C@@H](O)C[C@]2(C)[C@@]1(O)C(=O)COC(=O)C(C)(C)C` [FLUMETHASONE PIVALATE], greater than 30 µM.
Same read-out and setting: the result for `C[C@@H]1C[C@H]2[C@@H]3C[C@H](F)C4=CC(=O)C(Cl)=C[C@]4(C)[C@@]3(F)[C@@H](O)C[C@]2(C)[C@@]1(O)C(=O)CO` [HALOMETASONE] reads 13.1 µM; that for `CC(C)Cc1ccc(C(C)C(=O)NO)cc1` (centres undefined) [IBUPROXAM], 20.1 µM; that for `CC/C=C\C/C=C\C/C=C\C/C=C\C/C=C\CCCC(=O)O` [ICOSAPENT], greater than 30 µM.
Take `CC(C(O)c1ccc(O)cc1)N1CCC(Cc2ccccc2)CC1` (centres undefined) [IFENPRODIL]: the AC50 was greater than 30 µM on D(1A) dopamine receptor; 1.3 µM in [2]; greater than 30 µM at Adenosine receptor A3; greater than 30 µM in experiment [3]; greater than 30 µM in experiment [4]; 1 µM at Histamine H1 receptor. Further, the AC50 in experiment [5] is 0.45 µM; in experiment [6], 2.3 µM; in experiment [7] it was greater than 30 µM.
As for `CC(=O)N(CC(O)CO)c1c(I)c(C(=O)NCC(O)CO)c(I)c(C(=O)NCC(O)CO)c1I` (centres undefined) [IOHEXOL], the AC50 at D(1A) dopamine receptor was greater than 10 µM; in experiment [2] it was greater than 10 µM; at Adenosine receptor A3, greater than 30 µM; in [3], greater than 10 µM; in [4] it was greater than 30 µM; at Histamine H1 receptor it was greater than 10 µM. Moreover, the values for the AC50 in experiment [5], in experiment [6] and in [7] were greater than 30 µM, greater than 10 µM and greater than 10 µM, respectively.
For `CN(C/C=C/c1ccccc1)Cc1cccc2ccccc12` [NAFTIFINE], the AC50 at D(1A) dopamine receptor was greater than 10 µM; in [2], greater than 10 µM; on Adenosine receptor A3, greater than 30 µM; in experiment [3] it was greater than 10 µM; in experiment [4] it was greater than 30 µM; at Histamine H1 receptor, greater than 10 µM. The results for the AC50 in [5], in experiment [6] and in experiment [7] were greater than 30 µM, greater than 10 µM and greater than 10 µM, respectively.
On to `CC(C)NCC1CCc2cc(CO)c([N+](=O)[O-])cc2N1` (centres undefined) [OXAMNIQUINE], for which the AC50 was greater than 10 µM on D(1A) dopamine receptor; greater than 30 µM in experiment [2]; greater than 10 µM on Adenosine receptor A3; greater than 10 µM in [3]; greater than 30 µM in experiment [4]; greater than 10 µM at Histamine H1 receptor. Moreover, the AC50 is greater than 30 µM in [5], 26 µM in experiment [6] and greater than 10 µM in [7].
